Source: US4820695A, “C-20-dihydro-deoxy-(cyclic amino)-derivatives of macrolide antibiotics” (priority 1987, dated 1989)
≈ marks a conversion by molar mass, not a printed value. Read-outs that look alike come from different tables or passages of the source.

How the values were obtained:
[1] = tested on: Haemophilus influenzae C.L.; experiment: MIC, standard agar-dilution assay (Table IX); type: cell-based; settings: Ampicillin-sensitive strain, read-out: MIC
[2] = tested on: Haemophilus influenzae 76; experiment: MIC, standard agar-dilution assay (Table IX); type: cell-based; settings: Haemophilus influenzae 76, Ampicillin-resistant strain, read-out: MIC
[3] = tested on: Streptococcus pyogenes C203; experiment: ED50 in mice experimentally infected with S. pyogenes C203 (Table XI); type: in vivo; settings: Streptococcus pyogenes, doses given 1 and 4 hours postinfection, read-out: ED50
Outline: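 Mice infected with S. pyogenes C203 received two doses of compound, 1 and 4 h post-infection. ED50 is the dose in mg/kg (per dose, ×2) protecting 50% of animals.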

[4] = tested on: Mycoplasma gallisepticum 29C; experiment: MIC, broth-dilution microtiter test (Table X); type: cell-based; settings: Mycoplasmoides gallisepticum, read-out: MIC
Text: (§1) The MIC's in Table X were obtained using conventional broth-dilution microtiter tests.

Mycoplasma hyorhinis 29E = experiment: MIC, broth-dilution microtiter test (Table X); type: cell-based; settings: read-out: MIC
Text: as §1

[5] = tested on: Pasteurella multocida 60A; experiment: MIC, broth-dilution microtiter test (Table X); type: cell-based; settings: Avian isolate, read-out: MIC
Text: as §1

Staphylococcus aureus = experiment: MIC, broth-dilution microtiter test (Table X); type: cell-based; settings: read-out: MIC
Text: as §1

Mycoplasma synoviae 40A = experiment: MIC, broth-dilution microtiter test (Table X); type: cell-based; settings: Mycoplasmopsis synoviae, read-out: MIC
Text: as §1

[6] = tested on: Pasteurella hemolytica 22C; experiment: MIC, broth-dilution microtiter test (Table X); type: cell-based; settings: read-out: MIC
Text: as §1

[7] = tested on: Mycoplasma hyopneumoniae S5972; experiment: MIC, broth-dilution microtiter test (Table X); type: cell-based; settings: Mesomycoplasma hyopneumoniae, read-out: MIC
Text: as §1

Streptococcus sp. 19F = experiment: MIC, broth-dilution microtiter test (Table X); type: cell-based; settings: read-out: MIC
Text: as §1

[8] = tested on: Pasteurella multocida 17E; experiment: MIC, broth-dilution microtiter test (Table X); type: cell-based; settings: Bovine isolate, read-out: MIC
Text: as §1

[9] = tested on: Streptococcus Group D 2041; experiment: MIC, standard agar-dilution assay (Table IX); type: cell-based; settings: GROUPD2041, read-out: MIC
Pasteurella multocida [10] = experiment: Pasteurella infection in one-day-old chicks, medicated drinking water (Table XIII); type: in vivo; settings: Administered in the available drinking water at 2 g/gal
Description: (§2) Many of the C-20 modified derivatives of this invention have also shown in vivo antibacterial activity against infections induced by gram-negative bacteria. Tables XII and XIII summarize the results of tests in which illustrative compounds were evaluated against a Pasteurella infection in one-day-old chicks. The compounds were administered parenterally or orally after challenge of the chicks with Pasteurella multocida (0.1 ml of a 10^-4 dilution of a twenty-hour tryptose broth culture of an avian P. multocida given subcutaneously). In these tests, unless indicated otherwise, all non-medicated infected chicks died within 24 hours of Pasteurella challenge. In the tests summarized in Table XII, the compounds were administered by subcutaneous injection at a dosage of 30 mg/kg, 1 and 4 hours post-challenge of the chicks with P. multocida. In the tests summarized in Table XIII the compounds were administered in medicated drinking water (at a level of 2 g/gal) available from 4 to 20 hours prior to challenge of the chicks with P. multocida and during the 3 -day test period.
^a Administered in the available drinking water at a concentration of […]

[11] = tested on: Streptococcus Group D X66; experiment: MIC, standard agar-dilution assay (Table IX); type: cell-based; settings: read-out: MIC
Escherichia coli EC14 = experiment: MIC, standard agar-dilution assay (Table IX); type: cell-based; settings: read-out: MIC
[12] = tested on: Staphylococcus aureus S13E; experiment: MIC, standard agar-dilution assay (Table IX); type: cell-based; settings: Staphylococcus aureus, S13E
[13] = tested on: Staphylococcus epidermidis 222; experiment: MIC, standard agar-dilution assay (Table IX); type: cell-based; settings: read-out: MIC
Klebsiella X26 = experiment: MIC, standard agar-dilution assay (Table IX); type: cell-based; settings: read-out: MIC
[14] = tested on: Streptococcus pyogenes C203; experiment: MIC, standard agar-dilution assay (Table IX); type: cell-based; settings: read-out: MIC
Pasteurella multocida [15] = experiment: Pasteurella infection in one-day-old chicks, subcutaneous administration (Table XII); type: in vivo; settings: Administered subcutaneously, 30 mg/kg × 2, 1 and 4 hours post-challenge
Description: as §2
^a Administered subcutaneously; 30 mg/kg × 2

[16] = tested on: Staphylococcus aureus X400; experiment: MIC, standard agar-dilution assay (Table IX); type: cell-based; settings: Staphylococcus aureus X400, Methicillin-resistant strain, read-out: MIC
[17] = tested on: Staphylococcus aureus V41; experiment: MIC, standard agar-dilution assay (Table IX); type: cell-based; settings: Staphylococcus aureus V41, Penicillin-resistant strain, read-out: MIC
Staphyloccus aureus X1.1 = experiment: MIC, standard agar-dilution assay (Table IX); type: cell-based, Staphylococcus aureus; settings: Staphylococcus aureus, read-out: MIC
Escherichia coli N10 = experiment: MIC, standard agar-dilution assay (Table IX); type: cell-based; settings: read-out: MIC
[18] = tested on: Staphylococcus epidermidis EPI1; experiment: MIC, standard agar-dilution assay (Table IX); type: cell-based
[19] = tested on: Streptococcus pneumoniae Park I; experiment: MIC, standard agar-dilution assay (Table IX); type: cell-based
Escherichia coli TEM = experiment: MIC, standard agar-dilution assay (Table IX); type: cell-based; settings: read-out: MIC
[20] = Titratable groups in 66% aqueous DMF (Tables XIV-XVI); type: physicochemical
Text: ^c Run in 66% aqueous DMF
^d Run in 66% aqueous DMF

[21] = Staphylococcus epidermidis EPI1, agar-dilution, read-out: MIC
[22] = Streptococcus pneumoniae Park I, agar-dilution, read-out: MIC
[23] = Titratable groups (first value)

| SMILES | MIC [1] [µg/mL] | MIC [2] [µg/mL] | ED50 ([3]; C203, Oral) [mg/kg] | ED50 ([3]; C203, sc, Subcutaneous) [mg/kg] | MIC [4] [µg/mL] | MIC [5] [µg/mL] | MIC (Staphylococcus aureus) [µg/mL] | MIC (Mycoplasma synoviae 40A) [µg/mL] | MIC [6] [µg/mL] | MIC [7] [µg/mL] | MIC (Streptococcus sp. 19F) [µg/mL] | MIC [8] [µg/mL] | MIC [9] [µg/mL] | Number of Deaths/Number Treated (Pasteurella multocida [10]) | MIC [11] [µg/mL] | MIC (Escherichia coli EC14) [µg/mL] | MIC [12] [µg/mL] | MIC [13] [µg/mL] | MIC (Klebsiella X26) [µg/mL] | Number of Deaths/Number Treated (Pasteurella multocida [15]) | other results |
| --- | --- | --- | --- | --- | --- | --- | --- | --- | --- | --- | --- | --- | --- | --- | --- | --- | --- | --- | --- | --- | --- |
| CCC1OC(=O)CC(O)C(C)C(OC2OC(C)C(O)C(N(C)C)C2O)C(CCN2CCc3ccccc3C2)CC(C)C(=O)C=CC(C)=CC1COC1OC(C)C(O)C(OC)C1OC (stereo not drawn) [Compound D12, 20-DH-DO-20-(1,2,3,4-Tetrahydroisoquinolin-2-yl)desmycosin] | 16 (≈ 18 µM) | 8 (≈ 9 µM) | < 6.3 | 2 | ≤ 0.048 | 12.5 (≈ 14.1 µM) | 1.56 (≈ 1.75 µM) | 0.39 (≈ 0.439 µM) | 3.12 (≈ 3.51 µM) | 3.12 (≈ 3.51 µM) | 3.12 (≈ 3.51 µM) | 6.25 (≈ 7.03 µM) | 8 (≈ 9 µM) | 8/10 | 4 (≈ 4.5 µM) | 128 (≈ 144 µM) | 0.5 (≈ 0.562 µM) | 0.25 (≈ 0.281 µM) | 32 (≈ 36 µM) | 9/10 | MIC (Mycoplasma hyorhinis 29E): 12.5 µg/mL (≈ 14.1 µM); MIC [14]: 0.5 µg/mL (≈ 0.562 µM); MIC [16]: 0.5 µg/mL (≈ 0.562 µM); MIC [17]: 0.5 µg/mL (≈ 0.562 µM); MIC (Staphyloccus aureus X1.1): 0.5 µg/mL (≈ 0.562 µM); MIC (Escherichia coli N10): > 128 µg/mL; MIC [18, 21]: 0.5 µg/mL (≈ 0.562 µM); MIC [19, 22]: 1 µg/mL (≈ 1.12 µM); MIC (Escherichia coli TEM): 64 µg/mL (≈ 72 µM) |
| CCC1OC(=O)CC(O)C(C)C(OC2OC(C)C(O)C(N(C)C)C2O)C(CCN2CC3CCCCC3C2)CC(C)C(=O)C=CC(C)=CC1COC1OC(C)C(O)C(OC)C1OC (stereo not drawn) [Compound D45] |  |  |  |  |  |  |  |  |  |  |  |  |  | 1/10 |  |  |  |  |  | 0/10 |  |
| CCC1OC(=O)CC(O)C(C)C(OC2OC(C)C(O)C(N(C)C)C2O)C(CCN2CC3CCC(CC3)C2)CC(C)C(=O)C=CC(C)=CC1COC1OC(C)C(O)C(OC)C1OC (stereo not drawn) [Compound D14, 20-DH-DO-20-[3-azabicyclo[3.2.2]nonan-3-yl]desmycosin] | 4 (≈ 4.54 µM) | 8 (≈ 9.08 µM) | 50 | 1 | 1.56 (≈ 1.77 µM) | 3.12 (≈ 3.54 µM) | 0.78 (≈ 0.885 µM) | 0.39 (≈ 0.443 µM) | 1.56 (≈ 1.77 µM) | 0.78 (≈ 0.885 µM) | 1.56 (≈ 1.77 µM) | 3.12 (≈ 3.54 µM) | 4 (≈ 4.54 µM) | 0/10 | 4 (≈ 4.54 µM) | 32 (≈ 36.3 µM) | 0.25 (≈ 0.284 µM) | 0.12 (≈ 0.136 µM) | 8 (≈ 9.08 µM) | 2/10 | MIC (Mycoplasma hyorhinis 29E): 50 µg/mL (≈ 56.7 µM); pKa ([20]; Titratable groups): 9.2; pKa [20, 23]: 7.9; MIC [16]: 0.5 µg/mL (≈ 0.567 µM); MIC [17]: 0.25 µg/mL (≈ 0.284 µM); MIC (Staphyloccus aureus X1.1): 0.25 µg/mL (≈ 0.284 µM); MIC (Escherichia coli N10): 32 µg/mL (≈ 36.3 µM); MIC ([18]; Staphylococcus epidermidis, EPI1): 0.5 µg/mL (≈ 0.567 µM); MIC ([19]; Streptococcus pneumoniae): 0.5 µg/mL (≈ 0.567 µM); MIC (Escherichia coli TEM): 16 µg/mL (≈ 18.2 µM) |
| CCC1OC(=O)CC(O)C(C)C(OC2OC(C)C(O)C(N(C)C)C2O)C(CCN2CC3CCC(C)(C2)C3(C)C)CC(C)C(=O)C=CC(C)=CC1COC1OC(C)C(O)C(OC)C1OC (stereo not drawn) [Compound D47] |  |  |  |  |  |  |  |  |  |  |  |  |  | 6/10 |  |  |  |  |  | 0/10 |  |
| CCC1OC(=O)CC(O)C(C)C(OC2OC(C)C(O)C(N(C)C)C2O)C(CCN2CCCC3CCCCC32)CC(C)C(=O)C=CC(C)=CC1COC1OC(C)C(O)C(OC)C1OC (stereo not drawn) [Compound D20, 20-DH-DO-20-(decahydroquinolin-1-yl)desmycosin] | 16 (≈ 17.9 µM) | 16 (≈ 17.9 µM) | 34 | 1.7 | 0.78 (≈ 0.871 µM) | 3.12 (≈ 3.49 µM) | 0.78 (≈ 0.871 µM) | 0.195 (≈ 0.218 µM) | 3.12 (≈ 3.49 µM) | 0.78 (≈ 0.871 µM) | 3.12 (≈ 3.49 µM) | 3.12 (≈ 3.49 µM) | 8 (≈ 8.94 µM) | 0/10 | 8 (≈ 8.94 µM) | 128 (≈ 143 µM) | 0.5 (≈ 0.559 µM) | 0.25 (≈ 0.279 µM) | 16 (≈ 17.9 µM) |  | MIC (Mycoplasma hyorhinis 29E): 50 µg/mL (≈ 55.9 µM); pKa ([20]; Titratable groups): 9.4; pKa [20, 23]: 7.9; MIC [14]: 0.25 µg/mL (≈ 0.279 µM); MIC [16]: 0.5 µg/mL (≈ 0.559 µM); MIC [17]: 0.5 µg/mL (≈ 0.559 µM); MIC (Staphyloccus aureus X1.1): 0.5 µg/mL (≈ 0.559 µM); MIC (Escherichia coli N10): 128 µg/mL (≈ 143 µM); MIC [18, 21]: 0.5 µg/mL (≈ 0.559 µM); MIC [19, 22]: 0.12 µg/mL (≈ 0.134 µM); MIC (Escherichia coli TEM): 32 µg/mL (≈ 35.7 µM) |
| CCC1OC(=O)CC(O)C(C)C(OC2OC(C)C(O)C(N(C)C)C2O)C(CCN2CC3(C)CC2CC(C)(C)C3)CC(C)C(=O)C=CC(C)=CC1COC1OC(C)C(O)C(OC)C1OC (stereo not drawn) [Compound D21, 20-DH-DO-20-[1,3,3-trimethyl-6-azabicyclo[3.2.1]octan-6-yl]desmycosin] | 32 (≈ 35.2 µM) | 16 (≈ 17.6 µM) | 10 | 1 | 1.56 (≈ 1.72 µM) | 3.12 (≈ 3.43 µM) | 0.78 (≈ 0.858 µM) | 0.39 (≈ 0.429 µM) | 3.12 (≈ 3.43 µM) | 0.195 (≈ 0.214 µM) | 1.56 (≈ 1.72 µM) | 3.12 (≈ 3.43 µM) | 8 (≈ 8.8 µM) | 3/10 | 4 (≈ 4.4 µM) | 64 (≈ 70.4 µM) | 1 (≈ 1.1 µM) | 0.5 (≈ 0.55 µM) | 64 (≈ 70.4 µM) | 7/10 | pKa ([20]; Titratable groups): 9.7; pKa [20, 23]: 8; MIC [14]: 0.5 µg/mL (≈ 0.55 µM); MIC [16]: 1 µg/mL (≈ 1.1 µM); MIC [17]: 1 µg/mL (≈ 1.1 µM); MIC (Staphyloccus aureus X1.1): 1 µg/mL (≈ 1.1 µM); MIC (Escherichia coli N10): 64 µg/mL (≈ 70.4 µM); MIC [18, 21]: 1 µg/mL (≈ 1.1 µM); MIC [19, 22]: 0.5 µg/mL (≈ 0.55 µM); MIC (Escherichia coli TEM): 32 µg/mL (≈ 35.2 µM) |
